# Assay results published in patent publication US20250152605A1, “METHOD AND DRUG FOR TREATING NEURONAL CEROID LIPOFUSCINOSIS” (priority 2021, published 2025).
# Key:
# [1] = tested on: CLN3^Δex7/8 neurons; experiment: Mitochondrial autophagy level (mtDNA/nDNA after CCCP and Baf-A1); assay type: cell-based, human; settings: CCCP-induced mitochondrial damage
# Procedure: The medium in the cell culture plate was aspirated and the cells were digested after washing once with dPBS. After stopping the digestion with cell medium, the supernatant was removed by centrifugation and the cells were resuspended with 200 μL dPBS. DNeasy®) Blood & Tissue Kit was used to extract DNA from cells. Then, referring to the qRT-PCR system and reaction procedure in Tables 2 and 3, the qRT-PCR reaction was performed using the extracted DNA instead of the cDNA. Data analysis was performed in Prism 7 software using the 2^ΔΔCt process with genomic gene b2M as internal reference for relative quantification of the number of mitochondrial sequences MinArc. Primers for determining intracellular mitochondria number were as follows:
# Damaged mitochondria within a cell can be eliminated through an autophagic process named mitochondrial autophagy. Functional defects in autophagy affect the elimination of damaged mitochondria, which in turn disrupts mitochondrial homeostasis in neurons. After inducing mitochondrial damage in wild-type and CLN3^Δex7/8 neurons using the mitochondrial uncoupler CCCP, and then inhibiting the elimination of damaged mitochondria by Baf-A1, the increases of intracellular mitochondrial number (mtDNA/nDNA) after Baf-A1 treatment can represent the intracellular mitochondrial autophagy level.
# [2] = tested on: Cln3 KO mice; experiment: Body weight, brain tissue mass and toxicity in Cln3 KO mice
# Procedure: The control group was Cln3 KO mice whose drinking water contained an equal amount of solvent. Body weight changes were recorded during administration.
# Starting from day 21 on which the mice were weaned, Compound G or the solvent was added to the drinking water of Cln3 KO mice, and the weight changes of the mice were recorded. […] When the mice reached six months of age, they were euthanized and the brain tissues were taken out and weighed.
# [3] = tested on: NRF2 downstream genes; experiment: qRT-PCR of NRF2 downstream genes; assay type: cell-based; settings: CLN3^Δex7/8 human neural stem cells, 6 hours
# Procedure: The cells in the cell-culture dish were collected, extracted using AxyPrep Total RNA Mini Prep Kit or Qiagen AxyPrep Total RNA Mini Prep Kit, and the extracted RNA concentration is measured using Nanodrop; the extracted mRNA was reverse transcribed into cDNA by Transgen's EasyScript® One-Step gDNA Removal and cDNA Synthesis SuperMix and the primers used for reverse transcription were Oligo dT primers; the completion of reverse transcription followed by qRT-PCR reaction through PerfectStart™ Green qPCR SuperMix to detect the expression of the target gene; the qRT-PCR reaction was performed on the Bio-Rad CFX96 Real-Time PCR system; see Table 2 and Table 3 for the 20 μL qRT-PCR reaction system and reaction procedures; data analysis was performed in Prism 7 software using the 2^−ΔΔCt process with GAPDH as internal reference for relative quantification of the expression of the target gene.
# Primers were further designed, verification of qRT-PCR was conducted on the above activated genes in the downstream of NRF2. After treating CLN3^Δex7/8 human neural stem cells with Compound G for 6 hours, the cells were collected and mRNA was extracted for detecting the expression level of the genes.
# [4] = tested on: cathepsin D; experiment: Intracellular cathepsin D activity; assay type: cell-based, human; settings: CLN3^Δex7/8 neurons
# Procedure: The activity of intracellular protease cathepsin D was measured using Abcam's Cathepsin D Activity Assay kit. Each sample was prepared in more than 3 replicates. […]
smiles,measurement,setting,value
"C/C=C1\C(=O)C[C@H]2[C@@H]3CCC4=CC(=O)CC[C@]4(C)[C@H]3CC[C@]12C [Compound G, (Z)-guggulsterone]",mitochondrial autophagy (increase of mitochondrial number mtDNA/nDNA after Baf-A1),[1],rescue mitochondrial autophagy
same,body weight of mice,"[2]; 2 or 6 months old, drinking water from day 21",no significant effect
same,mass of the mice brain tissue,[2]; 6 months of age,no significant effect
same,expression level of most NRF2 downstream genes,[3],significantly increase
same,activity of cathepsins D (fluorescence intensity),[4],significantly increased
